Results on two compounds are retold here after ChEMBL document CHEMBL3098003, “Structure-based design of 2-aminopyridine oxazolidinones as potent and selective tankyrase inhibitors” (ACS Med Chem Lett, 2013).

For series [1], the system named is Mus musculus. Nature of the series: In vivo inhibition of tankyrase-mediated TCF7 gene expression in tumor of athymic nude mouse xenografted with human DLD1 cells at 200 mg/kg, po bid for 3 days by STF assay. The format is functional, organism-based. The arrangement: dose 200 mg/kg. The following applies: DLD-1.
In series [2] the test system is Mus musculus. Nature of the series: In vivo inhibition of tankyrase in tumor of athymic nude mouse xenografted with human DLD1 cells assessed as axin accumulation at 200 mg/kg, po bid for 3 days. The format is functional, organism-based. More on the design: dose 200 mg/kg. The following applies: DLD-1. (In general: A xenograft is tissue or cells of one species grown in another, often human tumour cells in immunodeficient mice.)

The nature of series [3]: Intrinsic clearance in human liver microsomes. In kind it is ADME. The following applies: read-out: CLH. (Liver microsomes are a subcellular fraction often used to study metabolism.)
The target in a further series is T1, Tankyrase 1/2 (Homo sapiens, UniProt Q9H2K2+O95271).
T1 sequence (Q9H2K2 whole entry): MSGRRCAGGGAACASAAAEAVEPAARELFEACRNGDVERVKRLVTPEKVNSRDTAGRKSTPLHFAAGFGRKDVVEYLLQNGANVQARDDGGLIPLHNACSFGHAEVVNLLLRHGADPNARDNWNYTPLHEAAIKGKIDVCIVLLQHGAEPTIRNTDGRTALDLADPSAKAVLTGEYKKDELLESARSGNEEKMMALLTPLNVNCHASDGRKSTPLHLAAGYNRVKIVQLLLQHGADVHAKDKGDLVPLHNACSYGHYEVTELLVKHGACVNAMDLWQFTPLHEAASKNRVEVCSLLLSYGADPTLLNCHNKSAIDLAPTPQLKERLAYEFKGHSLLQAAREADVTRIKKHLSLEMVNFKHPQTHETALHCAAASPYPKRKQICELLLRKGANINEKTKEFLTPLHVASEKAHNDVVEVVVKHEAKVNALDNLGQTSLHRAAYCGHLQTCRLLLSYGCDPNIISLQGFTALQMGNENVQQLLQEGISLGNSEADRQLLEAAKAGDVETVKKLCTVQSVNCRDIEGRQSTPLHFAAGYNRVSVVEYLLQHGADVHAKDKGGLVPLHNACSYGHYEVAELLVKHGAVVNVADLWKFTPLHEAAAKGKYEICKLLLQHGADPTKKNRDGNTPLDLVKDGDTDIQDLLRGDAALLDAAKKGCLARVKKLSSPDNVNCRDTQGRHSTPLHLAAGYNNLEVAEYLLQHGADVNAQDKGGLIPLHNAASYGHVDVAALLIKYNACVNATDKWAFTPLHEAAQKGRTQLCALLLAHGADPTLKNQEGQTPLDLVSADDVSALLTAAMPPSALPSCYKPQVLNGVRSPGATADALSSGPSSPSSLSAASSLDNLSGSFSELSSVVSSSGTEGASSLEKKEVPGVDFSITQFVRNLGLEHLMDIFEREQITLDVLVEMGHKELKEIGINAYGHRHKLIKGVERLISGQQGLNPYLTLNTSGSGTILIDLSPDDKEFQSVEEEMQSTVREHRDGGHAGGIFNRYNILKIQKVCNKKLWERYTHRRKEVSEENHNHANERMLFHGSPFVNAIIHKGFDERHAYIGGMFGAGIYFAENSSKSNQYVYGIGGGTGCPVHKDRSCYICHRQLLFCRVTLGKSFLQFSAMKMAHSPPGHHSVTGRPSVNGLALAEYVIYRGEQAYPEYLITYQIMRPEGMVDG
T1 sequence (O95271 whole entry): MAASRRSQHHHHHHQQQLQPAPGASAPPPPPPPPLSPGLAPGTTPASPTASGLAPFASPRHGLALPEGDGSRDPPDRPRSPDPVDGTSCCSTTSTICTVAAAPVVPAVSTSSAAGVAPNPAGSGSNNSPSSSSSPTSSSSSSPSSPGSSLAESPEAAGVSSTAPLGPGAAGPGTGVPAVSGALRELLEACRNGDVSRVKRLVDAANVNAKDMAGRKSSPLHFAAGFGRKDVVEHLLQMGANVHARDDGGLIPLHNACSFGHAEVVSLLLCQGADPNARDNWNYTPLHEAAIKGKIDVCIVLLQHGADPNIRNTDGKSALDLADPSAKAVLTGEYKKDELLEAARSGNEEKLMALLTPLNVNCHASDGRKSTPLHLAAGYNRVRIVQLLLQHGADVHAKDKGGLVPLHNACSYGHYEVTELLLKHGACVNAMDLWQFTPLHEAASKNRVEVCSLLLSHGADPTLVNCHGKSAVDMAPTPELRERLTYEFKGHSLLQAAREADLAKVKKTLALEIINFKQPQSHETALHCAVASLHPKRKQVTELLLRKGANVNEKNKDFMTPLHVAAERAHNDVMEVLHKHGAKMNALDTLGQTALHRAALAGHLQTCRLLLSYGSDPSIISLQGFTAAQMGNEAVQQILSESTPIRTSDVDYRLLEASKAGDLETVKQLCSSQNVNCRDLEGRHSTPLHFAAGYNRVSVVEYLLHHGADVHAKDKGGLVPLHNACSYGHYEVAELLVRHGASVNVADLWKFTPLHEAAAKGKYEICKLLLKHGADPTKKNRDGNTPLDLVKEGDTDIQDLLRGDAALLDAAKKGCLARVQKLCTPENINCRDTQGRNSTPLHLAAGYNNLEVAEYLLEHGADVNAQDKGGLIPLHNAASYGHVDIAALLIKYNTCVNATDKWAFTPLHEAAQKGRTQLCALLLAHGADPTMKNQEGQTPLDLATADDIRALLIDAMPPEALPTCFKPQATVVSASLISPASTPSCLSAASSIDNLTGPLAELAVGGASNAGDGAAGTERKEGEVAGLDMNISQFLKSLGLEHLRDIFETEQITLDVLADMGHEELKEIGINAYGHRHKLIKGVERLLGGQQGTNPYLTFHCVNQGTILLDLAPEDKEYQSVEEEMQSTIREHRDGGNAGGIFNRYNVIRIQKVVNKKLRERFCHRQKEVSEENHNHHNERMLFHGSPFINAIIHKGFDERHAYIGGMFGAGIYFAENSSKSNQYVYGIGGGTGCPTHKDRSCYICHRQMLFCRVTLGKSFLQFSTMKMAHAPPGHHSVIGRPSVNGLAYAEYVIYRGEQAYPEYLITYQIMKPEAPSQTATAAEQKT
Nature of the series: Inhibition of tankyrase in human SW480 cells assessed as degradation of total beta-catenin after 40 to 48 hrs. The format is cell-based.

Series [4] has as its system Mus musculus. Nature of the series: In vivo inhibition of tankyrase-mediated Wnt gene transcription in tumor of athymic nude mouse xenografted with human DLD1 cells at 50 mg/kg, po bid for 3 days by STF assay. In kind it is functional, organism-based. More on the design: dose 50 mg/kg. The following applies: DLD-1.
The test system of series [5] is Mus musculus. Nature of the series: In vivo inhibition of tankyrase in tumor of athymic nude mouse xenografted with human DLD1 cells assessed as axin accumulation at 50 mg/kg, po bid for 3 days. In kind it is functional, organism-based. The arrangement: dose 50 mg/kg. The following applies: DLD-1.
In series [6] the target is Voltage-gated inwardly rectifying potassium channel KCNH2 (Homo sapiens, UniProt Q12809). Nature of the series: Inhibition of human ERG.
In series [7] the target is Somatostatin receptor type 4 (Homo sapiens, UniProt P31391). Nature of the series: Binding affinity to SST4 receptor (unknown origin).
Another series concerns the target Substance-P receptor (Homo sapiens, UniProt P25103). Nature of the series: Binding affinity to NK1 receptor (unknown origin).
For series [8], the target named is C-C chemokine receptor type 2 (Homo sapiens, UniProt P41597). Nature of the series: Binding affinity to CCR2 (unknown origin).
Another series deals with Cannabinoid receptor 1 (Homo sapiens, UniProt P21554). Nature of the series: Binding affinity to CB1 receptor (unknown origin).

Molecules are shown by their SMILES. Calls of active or inactive are those of the source. The rule behind the calls is not given here.

Sequence of C-C chemokine receptor type 2 (P41597 whole entry): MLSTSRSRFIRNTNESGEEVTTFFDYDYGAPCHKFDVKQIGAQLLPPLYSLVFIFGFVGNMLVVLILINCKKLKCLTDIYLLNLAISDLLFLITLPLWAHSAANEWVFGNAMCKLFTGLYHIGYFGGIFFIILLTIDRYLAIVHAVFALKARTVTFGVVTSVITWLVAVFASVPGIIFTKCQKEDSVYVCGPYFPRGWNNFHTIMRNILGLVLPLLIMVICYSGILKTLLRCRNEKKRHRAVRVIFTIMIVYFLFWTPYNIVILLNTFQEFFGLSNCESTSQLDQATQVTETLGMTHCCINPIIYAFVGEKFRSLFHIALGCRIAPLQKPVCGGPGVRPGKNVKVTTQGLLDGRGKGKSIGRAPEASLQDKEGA
Sequence of Cannabinoid receptor 1 (P21554 whole entry): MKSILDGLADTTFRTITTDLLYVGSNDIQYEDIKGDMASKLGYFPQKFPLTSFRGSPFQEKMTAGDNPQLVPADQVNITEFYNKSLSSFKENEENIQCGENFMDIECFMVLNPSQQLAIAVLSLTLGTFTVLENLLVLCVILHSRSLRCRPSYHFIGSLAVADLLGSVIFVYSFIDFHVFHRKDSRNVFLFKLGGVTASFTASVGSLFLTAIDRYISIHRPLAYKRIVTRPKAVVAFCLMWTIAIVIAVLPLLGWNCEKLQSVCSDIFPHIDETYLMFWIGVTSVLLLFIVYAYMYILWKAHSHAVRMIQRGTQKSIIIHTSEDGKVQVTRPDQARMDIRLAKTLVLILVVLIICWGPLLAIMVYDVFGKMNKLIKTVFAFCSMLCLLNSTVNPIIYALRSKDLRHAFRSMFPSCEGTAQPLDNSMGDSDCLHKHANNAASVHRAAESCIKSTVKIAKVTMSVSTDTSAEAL
Sequence of Substance-P receptor (P25103 whole entry): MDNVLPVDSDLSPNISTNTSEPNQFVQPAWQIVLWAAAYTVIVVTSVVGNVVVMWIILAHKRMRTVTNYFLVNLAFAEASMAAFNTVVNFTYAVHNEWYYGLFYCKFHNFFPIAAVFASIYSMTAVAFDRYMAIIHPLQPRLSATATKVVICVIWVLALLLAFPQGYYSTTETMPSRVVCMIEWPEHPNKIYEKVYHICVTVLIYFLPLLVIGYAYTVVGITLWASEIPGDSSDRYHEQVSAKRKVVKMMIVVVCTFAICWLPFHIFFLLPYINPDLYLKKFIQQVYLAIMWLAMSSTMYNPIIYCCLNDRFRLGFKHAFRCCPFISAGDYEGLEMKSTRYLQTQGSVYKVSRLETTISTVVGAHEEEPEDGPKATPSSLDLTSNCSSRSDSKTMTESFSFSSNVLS
Sequence of Voltage-gated inwardly rectifying potassium channel KCNH2 (Q12809 whole entry): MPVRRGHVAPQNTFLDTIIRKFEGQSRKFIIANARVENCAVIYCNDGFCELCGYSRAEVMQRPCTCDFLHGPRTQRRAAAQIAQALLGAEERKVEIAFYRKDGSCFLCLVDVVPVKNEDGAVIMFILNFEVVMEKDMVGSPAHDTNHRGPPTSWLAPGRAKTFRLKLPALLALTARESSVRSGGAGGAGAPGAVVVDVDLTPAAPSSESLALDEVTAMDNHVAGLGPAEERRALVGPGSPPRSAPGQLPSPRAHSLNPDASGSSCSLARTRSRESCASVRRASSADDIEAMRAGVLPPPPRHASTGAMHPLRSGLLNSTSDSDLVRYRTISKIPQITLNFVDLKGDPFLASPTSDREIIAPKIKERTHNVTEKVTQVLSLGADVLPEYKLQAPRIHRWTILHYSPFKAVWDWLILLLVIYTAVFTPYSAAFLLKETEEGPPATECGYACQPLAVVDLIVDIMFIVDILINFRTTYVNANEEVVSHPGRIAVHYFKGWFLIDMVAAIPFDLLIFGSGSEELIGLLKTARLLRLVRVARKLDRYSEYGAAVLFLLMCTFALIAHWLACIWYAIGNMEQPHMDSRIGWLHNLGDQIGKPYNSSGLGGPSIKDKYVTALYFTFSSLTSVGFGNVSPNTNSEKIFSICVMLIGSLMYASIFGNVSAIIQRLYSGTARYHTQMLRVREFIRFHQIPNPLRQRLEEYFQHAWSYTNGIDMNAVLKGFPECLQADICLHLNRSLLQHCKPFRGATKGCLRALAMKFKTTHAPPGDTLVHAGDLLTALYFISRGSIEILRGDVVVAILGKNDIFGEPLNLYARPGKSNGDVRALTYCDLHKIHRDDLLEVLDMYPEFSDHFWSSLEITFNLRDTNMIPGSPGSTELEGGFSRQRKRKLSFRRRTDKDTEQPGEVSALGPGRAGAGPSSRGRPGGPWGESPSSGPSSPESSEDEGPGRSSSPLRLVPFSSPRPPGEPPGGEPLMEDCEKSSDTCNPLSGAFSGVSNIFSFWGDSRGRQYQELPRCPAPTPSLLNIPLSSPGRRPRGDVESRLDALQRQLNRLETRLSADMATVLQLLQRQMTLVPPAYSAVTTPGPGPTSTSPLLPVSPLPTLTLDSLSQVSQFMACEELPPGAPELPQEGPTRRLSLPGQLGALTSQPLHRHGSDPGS
Sequence of Somatostatin receptor type 4 (P31391 whole entry): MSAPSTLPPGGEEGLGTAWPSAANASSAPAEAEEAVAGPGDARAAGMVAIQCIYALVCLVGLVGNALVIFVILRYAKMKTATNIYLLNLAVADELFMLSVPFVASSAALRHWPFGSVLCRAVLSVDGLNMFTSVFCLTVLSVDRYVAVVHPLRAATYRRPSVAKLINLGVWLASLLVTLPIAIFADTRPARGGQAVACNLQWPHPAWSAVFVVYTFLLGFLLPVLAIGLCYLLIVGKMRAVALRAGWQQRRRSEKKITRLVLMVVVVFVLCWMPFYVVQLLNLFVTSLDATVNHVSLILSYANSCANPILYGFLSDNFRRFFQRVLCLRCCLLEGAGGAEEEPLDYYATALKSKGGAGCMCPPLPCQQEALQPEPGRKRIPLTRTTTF

One may read the IC50 as the concentration that inhibits the measured activity by half. Take `CC1(C)OC(=O)N(c2ccc(-c3cnc(N)c(-c4ncccn4)c3)cc2)[C@H]1c1ccccc1`: the inhibition result in the series with Mus musculus [1] and in the series on Mus musculus [2] was “Active” in each case. For the same compound, the microsomal CLint in [3] is 33 µL/min/mg. Moreover, the IC50 on Tankyrase 1/2 was found to be 0.233 µM.

As to `CC1(C)OC(=O)N([C@H]2CC[C@H](c3cnc(N)c(-c4ncccn4)c3)CC2)[C@H]1c1ccccc1`, the inhibition entry in the series on Mus musculus [4] and in the series with Mus musculus [5] was “Active” in each case. Also, the IC50 in series [6] is 10.9 µM; in [7], over 48.5 µM; at Substance-P receptor, over 48.5 µM; in [8], over 48.5 µM; on Cannabinoid receptor 1, over 48.5 µM.
